Experimental findings from ChEMBL document CHEMBL1201862, “PubChem BioAssay data set” (2004) are described below.

By GI50 is commonly meant the concentration that inhibits growth by half.

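Values below derive from 48-hour exposures of cells grown in 96-well plates, with endpoints linearly interpolated between the two concentrations bracketing the appropriate inhibition level. The concentration for 50% growth inhibition is given as GI50.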 Active and inactive are the calls of the source. Rule as the data show it: active = GI50 up to about 1.1 µM and inactive = higher. Some results are limits rather than exact numbers.

Holding throughout (experiment): DTP human tumour cell line panel, 48 h
The subject of assay [1] is A498.
Assay [2] relates to ACHN.
In assay [3] the test system is COLO 205.
In assay [4] the test system is EKVX.
Assay [5] has as its system HT-29.
Assay [6] concerns KM12.
For assay [7], the system named is Malme-3M.
The test system of assay [8] is OVCAR-4.
Assay [9] relates to RXF 393.
Assay [10] has as its system SF-539.
For assay [11], the system named is SK-MEL-2.
Assay [12] has as its system SN12C.
The test system of assay [13] is SW-620.
The subject of assay [14] is CCRF-CEM.
Assay [15] relates to SK-MEL-5.
The subject of assay [16] is SNB-75.
For assay [17], the system named is UACC-62.

Consider `Nc1ccn(CCNCCn2cnc3nc(N)[nH]c(=O)c32)c(=O)n1`, for which the GI50 in assay [1], in [2], in assay [3], in assay [4], in assay [5] and in assay [6] was > 100 µM (inactive) each time. The GI50 in assay [7], in assay [8], in assay [9], in assay [10], in [11] and in [12] was > 100 µM (inactive) each time. Also, the GI50 in assay [13] was > 100 µM (inactive).

Consider `COc1ccc(CNc2nc3c(NC(C)=O)cc(C(F)(F)F)cc3nc2-c2ccccc2)cc1OC`, for which the GI50 in assay [1] is > 100 µM (inactive); in assay [14], > 100 µM (inactive); in assay [3], > 100 µM (inactive); in assay [4], 35.6 µM (inactive); in assay [5], > 100 µM (inactive); in assay [6], > 100 µM (inactive). The GI50 in assay [7] was 95.3 µM (inactive); in [8], 10.6 µM (inactive); in [10], 25.2 µM (inactive); in assay [11], 57.7 µM (inactive); in assay [15], 21.5 µM (inactive); in assay [12], > 100 µM (inactive). The GI50 in assay [16] is 1.32 µM (inactive); in [13], 77.3 µM (inactive); in assay [17], 45.3 µM (inactive).

`CC1(C)OCN(c2ccc(S(N)(=O)=O)cc2)Cn2c1nc1ccccc12`: the GI50 in assay [1], in assay [2], in assay [14], in assay [3], in assay [4] and in [5] was > 100 µM (inactive) in each case. In addition, the GI50 in assay [6], in assay [7], in assay [8], in assay [9], in assay [10] and in assay [11] was > 100 µM (inactive) throughout. For the same compound, the GI50 in assay [12], in assay [16], in assay [13] and in assay [17] was > 100 µM (inactive) each time.

Turning to `Oc1ccc2c(O)cc(-c3ccccc3)nc2c1`, the GI50 was 32.1 µM (inactive) in assay [1]; 21.4 µM (inactive) in [2]; 18.2 µM (inactive) in assay [14]; 17 µM (inactive) in assay [3]; 35.9 µM (inactive) in assay [4]; 23.3 µM (inactive) in assay [5]. For the same compound, the GI50 in assay [6] was 22.2 µM (inactive); in assay [7], 34.4 µM (inactive); in assay [8], 26 µM (inactive); in assay [9], 6.22 µM (inactive); in [10] it was 37.2 µM (inactive); in [11], 31.7 µM (inactive). The GI50 in assay [15] was 30.1 µM (inactive); in assay [12], 24.3 µM (inactive); in assay [16] it was 22.1 µM (inactive); in [13], 16.4 µM (inactive); in assay [17] it was 19.9 µM (inactive).

Consider `C=C1C(=O)OC2CC3(C)C=CC(=O)C(=C)C3CC12` (stereo not given), for which the GI50 in assay [1] is 7.46 µM (inactive); in assay [2] it was 1.72 µM (inactive); in assay [14], 0.317 µM (active); in assay [3], 1.63 µM (inactive); in assay [4] it was 2.77 µM (inactive); in assay [5], 1.65 µM (inactive). Moreover, the GI50 in assay [6] is 2.08 µM (inactive); in assay [7], 1.99 µM (inactive); in assay [8], 2.18 µM (inactive); in [9], 2.03 µM (inactive); in assay [10], 1.53 µM (inactive); in [11] it was 1.67 µM (inactive). In addition, the GI50 was 1.72 µM (inactive) in [15]; 1.69 µM (inactive) in [12]; 3.73 µM (inactive) in [16]; 1.04 µM (active) in assay [13]; 1.5 µM (inactive) in assay [17].

On to `CCOP(=O)(OCC)C(C(=O)OC)C(=O)C(=O)Nc1cccc([N+](=O)[O-])c1` (stereo not given), for which the GI50 in [1], in [2], in assay [14], in [3], in assay [4] and in assay [5] was > 100 µM (inactive) throughout. In addition, the GI50 in [6], in assay [7], in assay [8], in assay [9], in assay [10] and in assay [11] was > 100 µM (inactive) throughout. Besides, the GI50 in assay [15], in assay [12], in [16], in [13] and in [17] was > 100 µM (inactive) throughout.

On to `O=C(CCc1nnc(S)[nH]1)Nc1cc(Cl)c(Cl)cc1Cl`, for which the GI50 in [1], in assay [2], in assay [14], in assay [3], in assay [5] and in [6] was > 100 µM (inactive) each time. In addition, the GI50 in assay [7], in assay [8], in [9], in assay [10], in assay [11] and in assay [15] was > 100 µM (inactive) throughout. In addition, the GI50 was > 100 µM (inactive) in assay [12], 25.4 µM (inactive) in [16], > 100 µM (inactive) in [13] and > 100 µM (inactive) in assay [17].

Regarding `Cc1ccc(/C=C/C(=O)c2sc(C(N)=S)nc2C)cc1`, the GI50 in assay [1], in assay [2], in [14], in assay [3], in assay [4] and in assay [5] was > 100 µM (inactive) in each case. Moreover, the GI50 is > 100 µM (inactive) in assay [6]; > 100 µM (inactive) in assay [7]; > 100 µM (inactive) in assay [9]; > 100 µM (inactive) in [10]; > 100 µM (inactive) in assay [11]; 45.8 µM (inactive) in assay [15]. In addition, the GI50 in assay [12], in assay [16], in assay [13] and in assay [17] was > 100 µM (inactive) each time.

On to `Cc1c(Cl)ccc2c1NC(=O)C2(O)CC(=O)c1ccc2ccccc2c1` (stereo not given), for which the GI50 is > 100 µM (inactive) in assay [1]; 58.9 µM (inactive) in assay [2]; 29 µM (inactive) in assay [14]; 85.3 µM (inactive) in [3]; 84.7 µM (inactive) in [4]; 39.6 µM (inactive) in [5]. In addition, the GI50 is 37.2 µM (inactive) in [6]; > 100 µM (inactive) in assay [7]; 46.9 µM (inactive) in assay [8]; 16 µM (inactive) in assay [9]; 49.8 µM (inactive) in assay [10]; > 100 µM (inactive) in assay [11]. The GI50 in assay [15] was > 10 µM (inactive); in assay [12], 76.7 µM (inactive); in assay [16], 14.2 µM (inactive); in [13], 47.8 µM (inactive); in assay [17], 21.5 µM (inactive).

With `Cc1ccc(S(=O)OC2C3CC4CC(C3)CC2C4)cc1` (stereo not given), the GI50 in assay [1], in assay [2], in [3], in assay [4], in [5] and in assay [6] was > 100 µM (inactive) in each case. Further, the GI50 in [7], in [8], in assay [9], in assay [10], in assay [15] and in assay [12] was > 100 µM (inactive) each time. Also, the GI50 in [16], in assay [13] and in [17] was > 100 µM (inactive) in each case.

Consider `CCCCN(CCCC)CC(C(=O)Nc1ccc([N+](=O)[O-])cc1[N+](=O)[O-])/C(C)=N\NC(=O)c1ccncc1` (stereo not given), for which the GI50 in assay [1], in assay [2], in assay [14], in [3], in assay [4] and in [7] was > 100 µM (inactive) each time. Besides, the GI50 in assay [8], in [9], in assay [10], in assay [11], in [15] and in [12] was > 100 µM (inactive) throughout. Also, the GI50 was 76.6 µM (inactive) in assay [16], > 100 µM (inactive) in assay [13] and > 100 µM (inactive) in [17].

Turning to `COC(=O)C1=Cc2c(cc(OC)c(OC)c2OC)[C@H](c2ccc(OC)c(OC)c2OC)C1C(=O)OC` (stereo not given in full), the GI50 in assay [1] was > 100 µM (inactive); in assay [2] it was > 100 µM (inactive); in assay [14], > 100 µM (inactive); in assay [3], 55.7 µM (inactive); in assay [4], > 100 µM (inactive); in assay [5] it was 36.1 µM (inactive). For the same compound, the GI50 in assay [6], in [7], in [8], in assay [9], in [10] and in assay [15] was > 100 µM (inactive) each time. The GI50 in assay [12] was > 100 µM (inactive); in [16], > 100 µM (inactive); in [13], > 100 µM (inactive); in [17], 54.2 µM (inactive).
